# Source: patent US11358952B2, “Substituted 4-aminoisoindoline-1,3-dione compounds, compositions thereof, and methods of treatment therewith” (Celgene Corporation, priority 2018, dated 2022)
# Test system: SU-DHL-4 cell line
# Experiment: SU-DHL-4 cell proliferation assay (Cell Titer-Glo viability)
# Format: cell-based
# Conditions: Homo sapiens; cell viability IC50 activity level, DLBCL cell line SU-DHL-4, 120 hours post-treatment; read-out: SU-DHL-4 Act
# Experimental: SU-DHL-4 Cell Proliferation Assay.
# The following is an example of an assay that can be used to determine the anti-proliferative activity of Isoindolinedione Compounds in a DLBCL cell line, for example, the SU-DHL-4 cell line (Deutsche Sammlung von Mikroorganismen and Zellkulturen GmbH [DSMZ]: catalogue number ACC-495) at 120 hours post-treatment. The seeding density for SU-DHL-4 can be optimized to ensure assay linearity in 1536-well plates.
# Increasing concentrations of test compounds (0.5 nM to 10 μM) were spotted in a 20-point dilution fashion (unevenly spaced data points) via an acoustic dispenser (EDC ATS-100) into an empty 1536-well plate. The DMSO concentration was kept constant for a final assay concentration of 0.1% DMSO. Prior to testing, SU-DHL-4 cells were grown in RPMI-1640 (Roswell Park Memorial Institute—1640) medium with 10% FBS (fetal bovine serum: HyClone) and expanded in culture flasks to provide sufficient amounts of starting material. Cells were then diluted to 500 cells per well in a 5 μL volume, and added directly to the compound-spotted 1536-well plates. Cells were allowed to grow for 120 hours in 5% CO2 at 37° C. At the time when exposure of cells to compound began (to), initial viable cell number was assessed via Cell Titer-Glo® Luminescent Cell Viability Assay at a 1 vol:2 vol ratio according to manufacturer's instructions (Promega Corporation, Madison, Wis.) by quantifying the level of luminescence generated by adenosine-5′-triphosphate (ATP) present in viable cells. After 120 hours, cell viability of the treated cells was assessed via Cell Titer-Gb® and read for luminescence. All growth inhibition curves were processed and evaluated using Activity Base (IDBS, Alameda, Calif.). Cell viability IC50 values were calculated using a four parameter logistic model (sigmoidal dose-response model): y=(A+((B−A)/(1+((C/x)^D)))) wherein: A=YMin B=YMax C=EC50 D=Hill slope IC50=the concentration of the compound when Y=50% of DMSO control Y=cell viability measured as luminescence unit, and x=concentration of compound.
row,IC50 [nM],SMILES
1,< 200,"O=C1CCC(N2C(=O)c3cccc(NCc4ccc(CN5C[C@@H]6CC(c7ccc(F)cc7)=C[C@@H]6C5)cc4)c3C2=O)C(=O)N1 (stereo in doubt) [Cpd 59, 2-(2,6-dioxopiperidin-3-yl)-4-(4-(((3aS,6aR)-5-(4-fluorophenyl)-3,3a,6,6a-tetrahydrocyclopenta[c]pyrrol-2(1H)-yl)methyl)benzylamino)isoindoline-1,3-dione]"
2,501 to 750,"O=C1CCC(N2C(=O)c3cccc(NCc4ccc(CN5CCN(c6ccc(F)cc6F)CC5)cc4)c3C2=O)C(=O)N1 (stereo not shown) [Cpd 1, 4-(4-((4-(2,4-difluorophenyl)piperazin-1-yl)methyl)benzylamino)-2-(2,6-dioxopiperidin-3-yl)isoindoline-1,3-dione]"
3,501 to 750,"O=C1CCC(N2C(=O)c3cccc(NCc4ccc(CN5CCN(c6ccc(F)cc6)CC5)cc4)c3C2=O)C(=O)N1 (stereo not shown) [Cpd 2, 2-(2,6-dioxopiperidin-3-yl)-4-(4-((4-(4-fluorophenyl)piperazin-1-yl)methyl)benzylamino)isoindoline-1,3-dione]"
4,200 to 500,"O=C1CCC(N2C(=O)c3cccc(NCc4ccc(CN5CCN(c6ccc(Cl)cc6)CC5)cc4)c3C2=O)C(=O)N1 (stereo not shown) [Cpd 3, 4-(4-((4-(4-chlorophenyl)piperazin-1-yl)metthyl)benzylamino)-2-(2,6-dioxopiperidin-3-yl)isoindoline-1,3-dione]"
5,501 to 750,"O=C1CCC(N2C(=O)c3cccc(NCc4ccc(CN5CCN(c6ccc(Cl)cc6Cl)CC5)cc4)c3C2=O)C(=O)N1 (stereo not shown) [Cpd 4, 4-(4-((4-(2,4-dichlorophenyl)piperazin-1-yl)methyl)benzylamino)-2-(2,6-dioxopiperidin-3-yl)isoindoline-1,3-dione]"
6,< 200,"CC(C)C1CCN(Cc2ccc(CNc3cccc4c3C(=O)N(C3CCC(=O)NC3=O)C4=O)cc2)CC1 (stereo not shown) [Cpd 5, 2-(2,6-dioxopiperidin-3-yl)-4-(4-((4-isopropylpiperidin-1-yl)methyl)benzylamino)isoindoline-1,3-dione]"
7,501 to 750,"O=C1CCC(N2C(=O)c3cccc(NCc4ccc(CN5CC(c6ccccc6)C5)cc4)c3C2=O)C(=O)N1 (stereo not shown) [Cpd 6, 2-(2,6-dioxopiperidin-3-yl)-4-(4-((3-phenylazetidin-1-yl)methyl)benzylamino)isoindoline-1,3-dione]"
8,< 200,"N#Cc1ccc(C2CN(Cc3ccc(CNc4cccc5c4C(=O)N(C4CCC(=O)NC4=O)C5=O)cc3)C2)cc1 (stereo not shown) [Cpd 7, 4-(1-(4-((2-(2,6-dioxopiperidin-3-yl)-1,3-dioxoisoindolin-4-ylamino)methyl)benzyl)azetidin-3-yl)benzonitrile]"
9,200 to 500,"Cc1cc(C#N)ccc1N1CCN(Cc2ccc(CNc3cccc4c3C(=O)N(C3CCC(=O)NC3=O)C4=O)cc2)CC1 (stereo not shown) [Cpd 8, 4-(4-(4-((2-(2,6-dioxopiperidin-3-yl)-1,3-dioxoisoindolin-4-ylamino)methyl)benzyl)piperazin-1-yl)-3-methylbenzonitrile]"
10,< 200,"N#Cc1ccc(N2CCN(Cc3ccc(CNc4cccc5c4C(=O)N(C4CCC(=O)NC4=O)C5=O)cc3)CC2)c(Cl)c1 (stereo not shown) [Cpd 9, 3-chloro-4-(4-(4-((2-(2,6-dioxopiperidin-3-yl)-1,3-dioxoisoindolin-4-ylamino)methyl)benzyl)piperazin-1-yl)benzonitrile]"
11,200 to 500,"O=C1CCC(N2C(=O)c3cccc(NCc4ccc(CN5CCN(c6ccc(C(F)(F)F)nc6)CC5)cc4)c3C2=O)C(=O)N1 (stereo not shown) [Cpd 10, 2-(2,6-dioxopiperidin-3-yl)-4-(4-((4-(6-(trifluoromethyl)pyridin-3-yl)piperazin-1-yl)methyl)benzylamino)isoindoline-1,3-dione]"
12,501 to 750,"N#Cc1cc(F)c(N2CCN(Cc3ccc(CNc4cccc5c4C(=O)N(C4CCC(=O)NC4=O)C5=O)cc3)CC2)c(Cl)c1 (stereo not shown) [Cpd 11, 3-chloro-4-(4-(4-((2-(2,6-dioxopiperidin-3-yl)-1,3-dioxoisoindolin-4-ylamino)methyl)benzyl)piperazin-1-yl)-5-fluorobenzonitrile]"
13,200 to 500,"O=C1CCC(N2C(=O)c3cccc(NCc4ccc(CN5CCN(c6ccccc6Cl)CC5)cc4)c3C2=O)C(=O)N1 (stereo not shown) [Cpd 12, 4-(4-((4-(2-chlorophenyl)piperazin-1-yl)methyl)benzylamino)-2-(2,6-dioxopiperidin-3-yl)isoindoline-1,3-dione]"
14,501 to 750,"O=C1CCC(N2C(=O)c3cccc(NCc4ccc(CN5CC(c6cccc(F)c6)C5)cc4)c3C2=O)C(=O)N1 (stereo not shown) [Cpd 13, 2-(2,6-dioxopiperidin-3-yl)-4-(4-((3-(3-fluorophenyl)azetidin-1-yl)methyl)benzylamino)isoindoline-1,3-dione]"
15,200 to 500,"O=C1CCC(N2C(=O)c3cccc(NCc4ccc(CN5CC(c6ccc(F)cc6)C5)cc4)c3C2=O)C(=O)N1 (stereo not shown) [Cpd 14, 2-(2,6-dioxopiperidin-3-yl)-4-(4-((3-(4-fluorophenyl)azetidin-1-yl)methyl)benzylamino)isoindoline-1,3-dione]"
16,751 to 1000,"N#Cc1cccc(C2CN(Cc3ccc(CNc4cccc5c4C(=O)N(C4CCC(=O)NC4=O)C5=O)cc3)C2)c1 (stereo not shown) [Cpd 15, 3-(1-(4-((2-(2,6-dioxopiperidin-3-yl)-1,3-dioxoisoindolin-4-ylamino)methyl)benzyl)azetidin-3-yl)benzonitrile]"
17,< 200,"O=C1CCC(N2C(=O)c3cccc(NCc4ccc(CN5CC(c6ccccn6)C5)cc4)c3C2=O)C(=O)N1 (stereo not shown) [Cpd 16, 2-(2,6-dioxopiperidin-3-yl)-4-(4-((3-(pyridin-2-yl)azetidin-1-yl)methyl)benzylamino)isoindoline-1,3-dione]"
18,< 200,"NC(=O)c1ccc(N2CCN(Cc3ccc(CNc4cccc5c4C(=O)N(C4CCC(=O)NC4=O)C5=O)cc3)CC2)cn1 (stereo not shown) [Cpd 17, 5-(4-(4-((2-(2,6-dioxopiperidin-3-yl)-1,3-dioxoisoindolin-4-ylamino)methyl)benzyl)piperazin-1-yl)picolinamide]"
19,751 to 1000,"O=C1CCC(N2C(=O)c3cccc(NCc4ccc(CN5CCN(c6ccc(Cl)cn6)CC5)cc4)c3C2=O)C(=O)N1 (stereo not shown) [Cpd 18, 4-(4-((4-(5-chloropyridin-2-yl)piperazin-1-yl)methyl)benzylamino)-2-(2,6-dioxopiperidin-3-yl)isoindoline-1,3-dione]"
20,501 to 750,"O=C1CCC(N2C(=O)c3cccc(NCc4ccc(CN5CCC(F)(c6ccccn6)CC5)cc4)c3C2=O)C(=O)N1 (stereo not shown) [Cpd 19, 2-(2,6-dioxopiperidin-3-yl)-4-(4-((4-fluoro-4-(pyridin-2-yl)piperidin-1-yl)methyl)benzylamino)isoindoline-1,3-dione]"
21,200 to 500,"O=C1CCC(N2C(=O)c3cccc(NCc4ccc(CN5CCC(c6cc(F)cc(F)c6)CC5)cc4)c3C2=O)C(=O)N1 (stereo not shown) [Cpd 20, 4-(4-((4-(3,5-difluorophenyl)piperidin-1-yl)methyl)benzylamino)-2-(2,6-dioxopiperidin-3-yl)isoindoline-1,3-dione]"
22,501 to 750,"O=C1CCC(N2C(=O)c3cccc(NCc4ccc(CN5CCC6(CC5)CC6)cc4)c3C2=O)C(=O)N1 (stereo not shown) [Cpd 21, 4-(4-(6-azaspiro[2.5]octan-6-ylmethyl)benzylamino)-2-(2,6-dioxopiperidin-3-yl)isoindoline-1,3-dione]"
23,200 to 500,"CCC1CCN(Cc2ccc(CNc3cccc4c3C(=O)N(C3CCC(=O)NC3=O)C4=O)cc2)CC1 (stereo not shown) [Cpd 22, 2-(2,6-dioxopiperidin-3-yl)-4-(4-((4-ethylpiperidin-1-yl)methyl)benzylamino)isoindoline-1,3-dione]"
24,< 200,"O=C1CCC(N2C(=O)c3cccc(NCc4ccc(CN5CCC6(CCC6)CC5)cc4)c3C2=O)C(=O)N1 (stereo not shown) [Cpd 23, 4-(4-(7-azaspiro[3.5]nonan-7-ylmethyl)benzylamino)-2-(2,6-dioxopiperidin-3-yl)isoindoline-1,3-dione]"
25,200 to 500,"CC(C)OC1CCN(Cc2ccc(CNc3cccc4c3C(=O)N(C3CCC(=O)NC3=O)C4=O)cc2)CC1 (stereo not shown) [Cpd 24, 2-(2,6-dioxopiperidin-3-yl)-4-(4-((4-isopropoxypiperidin-1-yl)methyl)benzylamino)isoindoline-1,3-dione]"
26,200 to 500,"O=C1CCC(N2C(=O)c3cccc(NCc4ccc(CN5CCC(n6cccn6)CC5)cc4)c3C2=O)C(=O)N1 (stereo not shown) [Cpd 25, 4-(4-((4-(1H-pyrazol-1-yl)piperidin-1-yl)methyl)benzylamino)-2-(2,6-dioxopiperidin-3-yl)isoindoline-1,3-dione]"
27,200 to 500,"O=C1CCC(N2C(=O)c3cccc(NCc4ccc(CN5CCC(C(F)(F)F)CC5)cc4)c3C2=O)C(=O)N1 (stereo not shown) [Cpd 26, 2-(2,6-dioxopiperidin-3-yl)-4-(4-((4-(trifluoromethyl)piperidin-1-yl)methyl)benzylamino)isoindoline-1,3-dione]"
28,200 to 500,"Cc1cc(C#N)cc(F)c1N1CCN(Cc2ccc(CNc3cccc4c3C(=O)N(C3CCC(=O)NC3=O)C4=O)cc2)CC1 (stereo not shown) [Cpd 27, 4-(4-(4-((2-(2,6-dioxopiperidin-3-yl)-1,3-dioxoisoindolin-4-ylamino)methyl)benzyl)piperazin-1-yl)-3-fluoro-5-methylbenzonitrile]"
